According to the supplement of paper PMC12533247:

Legend:
[1] = test system: primary dermal fibroblasts; test: % change in live cells vs DMSO control; higher = less cytotoxic; details: time (h post treatment): 48
Experimental: (§1)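 Cytotoxicity in uninfected 2D primary donor keratinocytes (20 h post treatment) and fibroblasts (48 h post treatment), measured with NucSpot live/dead dyes on IncuCyte. Live cells are normalised to the 0.2% DMSO control and shown as % change. Three biological replicates for each of donors 3, 4 and 5.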

primary keratinocytes = test: as above; details: time (h post treatment): 20
Experimental: as §1

[2] = test system: HSV-1 K26-GFP infected primary human skin cells; test: % change of HSV-1 GFP signal vs untreated infected cells; higher = less antiviral inhibition; details: cell type: primary dermal fibroblasts, time (h post infection): 48
Experimental: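 2D primary donor-derived dermal fibroblasts infected with GFP-HSV-1 K26 at MOI 1, treated 1 h later with compound dilutions and read at 48 hpi on IncuCyte. GFP integrated intensity is normalised to mock-infected and untreated infected wells (% change; -100 = full inhibition).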

[3] = test system: HSV-1 K26-GFP infected 3D skin equivalent; test: % change of tdTomato fibroblast signal relative to infected DMSO control; higher = higher signal (negative = inhibition / toxicity); details: time (h post infection): 48
Experimental: (§2)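 Triplicate dose-response (0.04 to 10 uM) of 11 top compounds in 3D bioprinted skin equivalents (submerged and ALI models) infected with GFP-HSV-1 K26 at MOI 0.1 and fixed at 48 hpi. GFP (virus) and tdTomato (fibroblast viability) signals are normalised to per-plate controls.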

[4] = test system: HSV-1 K26-GFP infected 3D skin equivalent; test: % activity on HSV-1 GFP signal (0 = infected DMSO control, -100 = uninfected control); higher = higher signal (negative = inhibition / toxicity); details: time (h post infection): 48
Experimental: as §2

O=C(/C=C\n1cnc(-c2cc(C(F)(F)F)cc(C(F)(F)F)c2)n1)NNc1ccccn1 [Verdinexor]
Details	% activity on HSV-1 GFP signal [%]	% change in live cells [%]	% change of HSV-1 GFP signal [%]	% change of tdTomato fibroblast signal [%]
[1], 0.082305 µM, donor: 3	–	-24	–	–
[1], 0.082305 µM, donor: 4	–	-8.33	–	–
[1], 0.082305 µM, donor: 5	–	-0.667	–	–
[1], 0.246914 µM, donor: 3	–	-20.3	–	–
[1], 0.246914 µM, donor: 4	–	-9.67	–	–
[1], 0.246914 µM, donor: 5	–	-6.33	–	–
[1], 0.740741 µM, donor: 3	–	-22.3	–	–
[1], 0.740741 µM, donor: 4	–	-14	–	–
[1], 0.740741 µM, donor: 5	–	-10.7	–	–
[1], 2.22222 µM, donor: 3	–	-23.3	–	–
[1], 2.22222 µM, donor: 4	–	-9.67	–	–
[1], 2.22222 µM, donor: 5	–	-15.7	–	–
[1], 6.66667 µM, donor: 3	–	-24.7	–	–
[1], 6.66667 µM, donor: 4	–	-11	–	–
[1], 6.66667 µM, donor: 5	–	-18.7	–	–
[1], 20 µM, donor: 3	–	-27.7	–	–
[1], 20 µM, donor: 4	–	-13.3	–	–
[1], 20 µM, donor: 5	–	-23.7	–	–
[1], 60 µM, donor: 3	–	-40.3	–	–
[1], 60 µM, donor: 4	–	-31.3	–	–
[1], 60 µM, donor: 5	–	-44	–	–
[2], 0.001 µM, donor: 3	–	–	2.8	–
[2], 0.001 µM, donor: 4	–	–	-3.59	–
[2], 0.003 µM, donor: 3	–	–	3.24	–
[2], 0.003 µM, donor: 4	–	–	-6.87	–
[2], 0.0091 µM, donor: 3	–	–	5.63	–
[2], 0.0091 µM, donor: 4	–	–	-5.59	–
[2], 0.0274 µM, donor: 3	–	–	3.47	–
[2], 0.0274 µM, donor: 4	–	–	-11.5	–
[2], 0.0823 µM, donor: 3	–	–	-1.6	–
[2], 0.0823 µM, donor: 4	–	–	-10.8	–
[2], 0.2469 µM, donor: 3	–	–	-1.84	–
[2], 0.2469 µM, donor: 4	–	–	-12	–
[2], 0.7407 µM, donor: 3	–	–	-13.6	–
[2], 0.7407 µM, donor: 4	–	–	-15.2	–
[2], 2.2222 µM, donor: 3	–	–	-31.7	–
[2], 2.2222 µM, donor: 4	–	–	-33.3	–
[2], 6.6667 µM, donor: 3	–	–	-34.8	–
[2], 6.6667 µM, donor: 4	–	–	-32.3	–
[2], 20 µM, donor: 3	–	–	-49	–
[2], 20 µM, donor: 4	–	–	-21.8	–
[3], 0.041152 µM, model: ALI	–	–	–	8.09
[3], 0.041152 µM, model: submerged	–	–	–	8.73
[3], 0.123457 µM, model: ALI	–	–	–	-4.16
[3], 0.123457 µM, model: submerged	–	–	–	-8.13
[3], 0.37037 µM, model: ALI	–	–	–	-13.3
[3], 0.37037 µM, model: submerged	–	–	–	-4.26
[3], 1.111111 µM, model: ALI	–	–	–	-11.7
[3], 1.111111 µM, model: submerged	–	–	–	-2.44
[3], 3.33333 µM, model: ALI	–	–	–	-19.1
[3], 3.33333 µM, model: submerged	–	–	–	-1.43
[3], 10 µM, model: ALI	–	–	–	-6.29
[3], 10 µM, model: submerged	–	–	–	-5.83
[4], 0.041152 µM, model: ALI	22.5	–	–	–
[4], 0.041152 µM, model: submerged	-2.17	–	–	–
[4], 0.123457 µM, model: ALI	-30.1	–	–	–
[4], 0.123457 µM, model: submerged	-37	–	–	–
[4], 0.37037 µM, model: ALI	-82.5	–	–	–
[4], 0.37037 µM, model: submerged	-41.1	–	–	–
[4], 1.111111 µM, model: ALI	-92.6	–	–	–
[4], 1.111111 µM, model: submerged	-56.4	–	–	–
[4], 3.33333 µM, model: ALI	-105	–	–	–
[4], 3.33333 µM, model: submerged	-65.7	–	–	–
[4], 10 µM, model: ALI	-108	–	–	–
[4], 10 µM, model: submerged	-68.6	–	–	–
primary keratinocytes, 0.082305 µM, donor: 3	–	-11	–	–
primary keratinocytes, 0.082305 µM, donor: 4	–	-9	–	–
primary keratinocytes, 0.082305 µM, donor: 5	–	-5.67	–	–
primary keratinocytes, 0.246914 µM, donor: 3	–	-23.3	–	–
primary keratinocytes, 0.246914 µM, donor: 4	–	-17	–	–
primary keratinocytes, 0.246914 µM, donor: 5	–	-12.7	–	–
primary keratinocytes, 0.740741 µM, donor: 3	–	-38.7	–	–
primary keratinocytes, 0.740741 µM, donor: 4	–	-12	–	–
primary keratinocytes, 0.740741 µM, donor: 5	–	-16.7	–	–
primary keratinocytes, 2.22222 µM, donor: 3	–	-44.3	–	–
primary keratinocytes, 2.22222 µM, donor: 4	–	-32	–	–
primary keratinocytes, 2.22222 µM, donor: 5	–	-23.3	–	–
primary keratinocytes, 6.66667 µM, donor: 3	–	-60.3	–	–
primary keratinocytes, 6.66667 µM, donor: 4	–	-42.3	–	–
primary keratinocytes, 6.66667 µM, donor: 5	–	-31.7	–	–
primary keratinocytes, 20 µM, donor: 3	–	-68.3	–	–
primary keratinocytes, 20 µM, donor: 4	–	-74.7	–	–
primary keratinocytes, 20 µM, donor: 5	–	-74	–	–
primary keratinocytes, 60 µM, donor: 3	–	-75.3	–	–
primary keratinocytes, 60 µM, donor: 4	–	-86.7	–	–
primary keratinocytes, 60 µM, donor: 5	–	-82	–	–
